Like-named read-outs stand apart in the source and are kept apart here.
Key:
[1] = test system: P. falciparum; assay: Anti-Plasmodium activity: viability of P. falciparum cultures (pLDH enzyme assay); type: cell-based; details: read-out: IC50 (μM) P. falciparum
Protocol: P. falciparum cultures were grown in O+ blood obtained by venipuncture of volunteers. Cultures of the laboratory line ItG were maintained by the method of Trager and Jensen (Trager, W.; Jensen, J. Science 1976, 193, 673) using RPM, 1640 supplemented with 10% human serum (a kind gift obtained under ethical consent from the Chemo Day Care department of the Princess Margaret Hospital, Toronto, Canada) and 50 μM hypoxanthine (RPMI-A). The effects of the test compounds on the viability of P. falciparum cultures were determined using a Lactate Dehydrogenase (LDH) enzyme assay specific to the enzyme found in Plasmodium falciparum (pLDH) (Prudhomme, J. G.; Sherman, I. W. J Immunol Methods 1999, 229(1-2), 169; Makler, M. T.; Ries, J. M.; Williams, J. A.; Bancroft, J. E.; Piper, R. C.; Gibbins, B. L.; Hinrichs, D. J. Am J Trop Med Hyg 1993, 48(6), 739). Briefly, compounds to be tested were dissolved in DMSO afford a solution having a concentration of 10 mg/mL. Two-fold serial dilutions were then produced in 50 μL of RPMI-A in a 96 well plate and then 50 μL of parasite culture (2% hematocrit, 2% parasitemia) were added to each well and the plates were then incubated at 37° C. in 95% N2, 3% CO2, and 2% O2 for 72 hr. The contents of the wells were then re-suspended using a multi-channel pipettor and a 15 μL sample was removed from each well and was added to 100 μL of pLDH enzyme assay mixture (Prudhomme, J. G.; Sherman, I. W. J Immunol Methods 1999, 229(1-2), 169). After 1 hr the absorbance of the wells at 650 nm was determined using a ThermoMax microplate reader (Molecular Devices, Sunnyvale, Calif.). The IC50 values of individual compounds were determined using a non-linear regression analysis of the data^19 using the computer program SigmaPlot (Jandel Scientific) and are reported in Table 1. The IC50 values represent the mean±standard error calculated from four independent determinations. To verify if the poor viability of the cultures was related to inhibited merozoite invasion, samples were taken from treated wells and the presence of extracellular merozoites was confirmed by microscopy.

[2] = test system: CHO cells; assay: Viability of CHO cells (MTT); type: cell-based; details: Cricetulus griseus, read-out: IC50 (μM) CHO cells
Protocol: CHO cells (ATCC, Manassas, Va.) were grown in RPMI-1640 supplemented with 10% fetal calf serum (Sigma, St. Louis, Mo.), 25 mM HEPES and gentimicin (RPMI-10). Cells were seeded in 96 well plates and grown to 50% confluency in 100 μL of RPMI-10 per well prior to the addition of either DMSO alone, or a 10 mg/mL solution of a test compound of the disclosure in DMSO. Compound gradients were prepared by adding 90 μL of RPMI-10 mixed with 10 μL of compound solution to the first well in the series, mixing, transferring 100 μL to the next well, and repeating until the next-to-last well was reached. After 48 hrs, the viability of the cells was determined by discarding the media in the wells and adding 100 μL of 10 mg/mL of 3-[4,5-dimethylthiazol-2-yl]-2,5-diphenyltetrazolium bromide (MTT, Sigma, St. Louis, Mo.) in RPMI-10, incubating the plates for a further hour, and then removing the media and adding 100 μL of DMSO and reading the absorbance at 650 nm (Campling, B. G.; Pym, J.; Galbraith, P. R.; Cole, S. P. Leuk Res 1988, 12(10), 823). The IC50 values of individual compounds were determined using a non-linear regression analysis of the dose-response curve using the computer program SigmaPlot (Jandel Scientific) and are reported in Table 1.

[3] = strain line ItG, 72 hr incubation, pLDH assay, mean of four determinations ± standard error
[4] = CHO cells, 48 hrs, MTT, mean of four determinations ± standard error

| IC50 [1, 3] [µM] | melting point [°C] | SMILES | IC50 [2, 4] [µM] | IC50 ([1]; 72 h) [µM] | IC50 ([2]; CHO, 48 h) [µM] |
| --- | --- | --- | --- | --- | --- |
| 0.73 ± 0.03 |  | Brc1ccc(Cn2cc[n+](Cc3ccc4ccccc4c3)c2)cc1 [QT95, 1-(4-Bromobenzyl)-3-(naphthalen-2-ylmethyl)imidazolium bromide] | 27 ± 5 |  |  |
| 1.05 ± 0.06 |  | Brc1cccc(Cn2cc[n+](Cc3cccc(Br)c3)c2)c1 [QT83, 1,3-Bis-(3-bromobenzyl)imidazolium bromide] | 132 ± 22 |  |  |
|  | 142 to 143 | Cl.Cl.c1cn(CCCCCCCCCCCCCCn2ccnc2)cn1 |  |  |  |
| 17 ± 3 |  | Fc1ccc(Cn2cc[n+](Cc3ccc(F)cc3)c2)cc1 [QT92, 1,3-Bis-(4-fluorobenzyl)imidazolium bromide] | 56 ± 4 |  |  |
| 16 ± 1 |  | c1ccc(Cn2cc[n+](Cc3ccccc3)c2)cc1 [QT68, 1,3-Dibenzylimidazolium bromide] | 191 ± 3 |  |  |
| 3.1 ± 0.4 |  | Cn1c[n+](C)c(-c2ccccc2)c1-c1ccccc1 [QT104, 1,3-Dimethyl-4,5-diphenyl-1H-imidazolium iodide] | 385 ± 42 |  |  |
| 2.9 ± 0.9 |  | Brc1ccc(C[n+]2ccn(Cc3ccccc3)c2)cc1 [QT75, 1-Benzyl-3-(4-bromobenzyl)imidazolium bromide] | 484.5 ± 0.9 |  |  |
| 4.7 ± 0.9 |  | C[n+]1ccn(CCCCCCCCn2cc[n+](C)c2)c1 [QT71, 1,8-Bis-(3-methylimidazolium-1-yl)octane diiodide] | 452 ± 49 |  |  |
| 2.6 ± 0.1 |  | O=C(Cn1cc[n+](CC(=O)c2ccc(Cl)cc2)c1)c1ccc(Cl)cc1 [QT91, 1,3-Bis-[2-oxo-2-(4-chlorophenyl)ethyl]imidazolium bromide] | 53 ± 2 |  |  |
| 0.12 ± 0.04 |  | C[n+]1ccn(Cc2ccc(-c3ccc(Cn4cc[n+](C)c4)cc3)cc2)c1 [QT113, 4,4′-Bis-(3-methylimidazolium-1-yl-methyl)biphenyl diiodide] | 125 ± 13 |  |  |
|  | 58 to 59 | c1cn(CCCCCCCCCCCCCCCCCCCCn2ccnc2)cn1 [QT-115, 1,20-Bis-(1H-imidazol-1-yl)eicosane] |  |  |  |
|  | 143 to 144 | Cl.Cl.c1cn(CCCCCCCCCCn2ccnc2)cn1 |  |  |  |
|  |  | Clc1ccc(Cn2cc[n+](Cc3ccc(Cl)cc3)c2)cc1 [QT80, 1,3-Bis-(4-chlorobenzyl)imidazolium chloride] |  | 9 ± 2 | 105 ± 1 |
| 2.6 ± 0.8 | 156 to 157 | C[n+]1ccn(CCCCCCn2cc[n+](C)c2)c1 [QT87, 1,6-Bis-(3-methylimidazolium-1-yl)hexane diiodide] | 146 ± 14 |  |  |
| 3.3 ± 0.4 |  | Clc1cccc(Cn2cc[n+](Cc3cccc(Cl)c3)c2)c1 [QT74, 1,3-Bis-(3-chlorobenzyl)imidazolium bromide] | 334.2 ± 0.4 |  |  |
| 0.9 ± 0.4 |  | c1ccc2cc(Cn3cc[n+](Cc4ccc5ccccc5c4)c3)ccc2c1 [QT81, 1,3-Bis-(naphthalen-2-yl-methyl)imidazolium bromide] | 27 ± 1 |  |  |
| 67 ± 22 |  | C[n+]1ccn(CCCCn2cc[n+](C)c2)c1 [QT86, 1,4-Bis-(3-methylimidazolium-1-yl)butane diiodide] | 122 ± 3 |  |  |
| 2 ± 0.2 |  | Clc1ccccc1Cn1cc[n+](Cc2ccccc2Cl)c1 [QT90, 1,3-Bis-(2-chlorobenzyl)imidazolium bromide] | 110 ± 23 |  |  |
|  | 176 to 177 | Cl.Cl.c1cn(CCCCCCCCn2ccnc2)cn1 |  |  |  |

| IC50 [1, 3] [µM] | melting point [°C] | SMILES | IC50 [2, 4] [µM] | IC50 ([1]; 72 h) [µM] | IC50 ([2]; CHO, 48 h) [µM] |
| --- | --- | --- | --- | --- | --- |
| 543 ± 66 |  | Cn1cc[n+](C)c1 [QT70, 1,3-Dimethylimidazolium iodide] | 894 ± 19 |  |  |
| 0.0032 ± 0.0002 |  | C[n+]1ccn(CCCCCCCCCCCCCCn2cc[n+](C)c2)c1 [QT107, 1,14-Bis-(3-methylimidazolium-1-yl)tetradecane diiodide] | 11 ± 2 |  |  |
| 0.045 ± 0.004 |  | C[n+]1ccn(CCCOc2ccc(OCCCn3cc[n+](C)c3)cc2)c1 [QT123, 1,4-Bis[3-(3-methylimidazolium-1-yl)propoxy]benzene diiodide] | 113 ± 12 |  |  |
| 0.009 ± 0.001 |  | C[n+]1ccn(CCCCCCCCCCCCn2cc[n+](C)c2)c1 [QT89, 1,12-Bis-(3-methylimidazolium-1-yl)dodecane diiodide] | 26 ± 5 |  |  |
| 0.0061 ± 0.0006 |  | C[n+]1ccn(CCCCCCCCCCCn2cc[n+](C)c2)c1 [QT118, 1,11-Bis-(3-methylimidazolium-1-yl)undecane diiodide] | 42 ± 3 |  |  |
|  |  | COc1ccc(Cn2cc[n+](Cc3ccc(OC)cc3)c2)cc1 [QT79, 1,3-Bis-(4-methoxybenzyl)imidazolium chloride] |  | 5 ± 1 | 30.6 ± 0.7 |
|  | 98 to 99 | Cl.Cl.c1cn(CCCCCCCCCCCCCCCn2ccnc2)cn1 |  |  |  |
|  | 220 to 221 | Cl.Cl.c1cn(CCCCCCn2ccnc2)cn1 |  |  |  |
| 0.07 ± 0.01 |  | C[n+]1cn(-c2ccc(-c3ccc(-n4c[n+](C)c5ccccc54)cc3)cc2)c2ccccc21 [QT110, 4,4′-Bis-(3-methylbenzimidazolium-1-yl)biphenyl diiodide] | 98 ± 24 |  |  |
| 0.35 ± 0.06 |  | Ic1ccc(Cn2cc[n+](Cc3ccc(I)cc3)c2)cc1 [QT78, 1,3-Bis-(4-iodobenzyl)imidazolium bromide] | 33 ± 1 |  |  |
| 1.4 ± 0.6 |  | Brc1ccccc1Cn1cc[n+](Cc2ccccc2Br)c1 [QT82, 1,3-Bis-(2-bromobenzyl)imidazolium bromide] | 125 ± 10 |  |  |
| 0.082 ± 0.009 |  | C[n+]1ccn(CCCCCCCCCCn2cc[n+](C)c2)c1 [QT88, 1,10-Bis-(3-methylimidazolium-1-yl)decane diiodide] | 57 ± 5 |  |  |
| 0.0021 ± 0.0005 | 78 to 80 | C[n+]1ccn(CCCCCCCCCCCCCCCCCCCCn2cc[n+](C)c2)c1 [QT116, 1,20-Bis-(3-methylimidazolium-1-yl)eicosane diiodide] | 1.4 ± 0.2 |  |  |
| 0.002 ± 0.001 |  | C[n+]1ccn(CCCCCCCCCCCCCCCn2cc[n+](C)c2)c1 [QT101, 1,15-Bis-(3-methylimidazolium-1-yl)pentadecane diiodide] | 1.2 ± 0.2 |  |  |
| 11.2 ± 0.5 |  | C[n+]1ccn(-c2ccc(-n3cc[n+](C)c3)cc2)c1 [QT114, 1,4-Bis-(3-methylimidazolium-1-yl)benzene diiodide] | 317 ± 64 |  |  |
| 0.5 ± 0.1 |  | O=C(Cn1cc[n+](CC(=O)c2ccc(Cc3ccccc3)cc2)c1)c1ccc(Cc2ccccc2)cc1 [QT97, 1,3-Bis-[2-oxo-2-(4-benzylphenyl)ethyl]imidazolium bromide] | 4.3 ± 0.3 |  |  |
| 230 ± 83 |  | CCCn1cc[n+](C)c1 [QT73, 3-Methyl-1-propylimidazolium bromide] | 998 ± 83 |  |  |
| 1.4 ± 0.1 |  | c1ccc(Cn2c[n+](Cc3ccccc3)c(-c3ccccc3)c2-c2ccccc2)cc1 [QT105, 1,3-dibenzyl-4,5-diphenyl-1H-imidazolium bromide] | 21 ± 2 |  |  |

| SMILES | IC50 [1, 3] [µM] | melting point [°C] | IC50 [2, 4] [µM] | IC50 ([1]; 72 h) [µM] | IC50 ([2]; CHO, 48 h) [µM] |
| --- | --- | --- | --- | --- | --- |
| O=[N+]([O-])c1ccc(Cn2cc[n+](Cc3ccc([N+](=O)[O-])cc3)c2)cc1 [QT85, 1,3-Bis-(4-nitrobenzyl)imidazolium bromide] | 9 ± 2 |  | 227 ± 7 |  |  |
| O=[N+]([O-])c1ccc(C[n+]2ccn(-c3ccc(-c4ccc(-n5cc[n+](Cc6ccc([N+](=O)[O-])cc6)c5)cc4)cc3)c2)cc1 [QT103, 4,4′-Bis-[3-(4-nitrobenzyl)-1H-imidazolium-1-yl]biphenyl dibromide] | 0.026 ± 0.003 |  | 14 ± 2 |  |  |
